Source: US3937838A, “Orally active bronchospasmolytic compounds and their preparation” (priority 1966, dated 1976)
Where two headings read alike, the source gives them in different places.

Tests used:
[1] = test system: bronchospasm induced by histamine aerosol; test: Protecting effect against histamine aerosol in intact guinea pigs (Example 7c); type: in vivo, guinea pig; settings: for ED50: Cavia porcellus, m ± s.e., read-out: ED50 (protecting 50 per cent of the animals for more than 4 minutes)
Description: The compounds KWD2109 and KWD2025 have been compared in preventing bronchospasm induced by histamine aerosol in guinea pigs.
The drug was injected intraperitoneally 15 minutes (Table 2) or administered orally 30 minutes (Table 3) before histamine treatment. The dose of the drugs protecting 50 per cent of the animals for more than 4 minutes is denoted "ED50". In untreated animals only 1-2 percent will withstand the histamine aerosol for more than 4 minutes.
To study the duration of the effect, 2 mg/kg was administered orally to intact guinea pigs at different time intervals before the histamine treatment. Two series each including eleven groups of six animals was studied. The groups were tested in histamine aerosol 10, 20, 30, 40, 50, 60, 120, 180, 240, 300 and 360 minutes after the administration of the compound. The per cent of animals in each group protected more than 4 minutes and more than 10 minutes was determined.

[2] = test system: isolated guinea pig heart; test: Effect on isolated guinea pig heart, Langendorff (Example 7d)
Description: The isolated guinea pig heart was perfused according to Langendorff. The method used is described by Anden et al. (Acta. Pharmacol. et Toxicol. 21, 247, 1964). Contractions in the heart were recorded by means of a force displacement transducer and aa Grass polygraph Model 7. Epinephrine was used as reference. KWD2109 and KWD2025 were tested on the same preparation. The comparisons of effects were based on dose for 50 percent increase in chronotropic effect and 10 percent increase in inotropic effect.

[3] = test system: isolated guinea pig auricle; test: Dual bath preparation, effect on left auricle (Example 8a)
Description: The left auricle was dissected out and mounted together with spirally-cut trachea from the same animal in a 100 ml bath in Kreb's solution (37°C.) well aereated with a mixture of oxygen (95%) and carbon dioxide (5%). The auricle was electrically stimulated with square wave pulses from a Techtronic Stimulator (voltage 2-4; duration: 10 m sec; frequency 1 per second). This is, in general, the same procedure described above in Example 5c.
Using the dual bath preparation, tests were made of the effect on the trachea and auricle of KWD2025 (of the present invention) and of the known drugs KWD2109 and epinephrine. The drug to be tested was added to the bath in the predetermined amount and allowed to act upon the organs for 10 minutes.

heart rate = test: Tests on anesthetized cat, heart rate with bronchospasmolytic effect (Example 8b); type: in vivo
From the text: The relative bronchospasmolytic and cardiovascular effects of compounds can be tested in the method of Konzett & Rossler (see Example 5b above). As has already been described, the test animal is force-ventilated and the effect of various compounds in controlling histamine-induced bronchoconstriction, as reflected by overflow of the forced ventilation in excess of lung capacity, is used as a measure of the bronchospasmolytic effect. Concurrently in the same animal, changes in heart rate and arterial mean pressure can be simultaneously recorded.
In carrying out this procedure, bronchoconstriction in the test animal is induced by injection of histamine. The ability of KWD2025 and KWD2109 to control the histamine-inducred bronchoconstriction is measured by injecting the test compound 3 minutes before injection of […], and before injection of histamine, the effect of the test compound on the heart rate is recorded.

[4] = test system: isolated guinea pig trachea; test: Bronchospasmolytic effect in vitro, isolated guinea pig trachea (Example 7a); settings: Table 1, six experiments
Description: The trachea from a guinea pig was dissected out and spirally out. It was mounted in a water-jacketed bath (37°C.) in Kreb's solution and aerated with oxygen (95%) and carbon dioxide (5%). Pilocarpine (1 μg/ml) was added. The load was about 2 g and the relaxation was recorded by means of a Grass force displacement transducer and a Grass polygraph model 5. The compound KWD2109 was tested on six preparations in which epinephrine was used as reference.

## Oc1ccc(C(O)CNC2CCC2)cc1O (stereo not drawn) [KWD2109, 1-(3',4'-dihydroxyphenyl)-2-(cyclobutylamino)-ethanol]
[1]; ip, 0.25 h, i.p., 15 minutes before histamine-aerosol
  ED50: 0.17 ± 0.02 mg/kg
[1]; po, 0.5 h, peroral, 30 minutes before histamine-aerosol
  ED50: 0.55 ± 0.14 mg/kg
[1]; intraperitoneal
  protecting activity relative to KWD2025: 3.5 times
[1]; oral
  protecting activity relative to KWD2025: 3.1 times
[1]; summary b256
  bronchospasmolytic activity relative to KWD2025 after intraperitoneal and oral administration: about 3 times
[2]; KWD2025 given index 1.0
  therapeutic index, bronchospasmolytic effect over effect on the heart (inotropic): 0.083
[2]; dose for 10 percent increase in inotropic effect, Table 5
  effect on force x epinephrine: 5.5 ± 3.2
[2]; dose for 50 percent increase in chronotropic effect, Table 4
  effect on heart rate x epinephrine: 11.8 ± 6.5
[3]; equi-effective doses on trachea
  effect on auricle relative to epinephrine at doses with same effect on trachea: of the same order as that of epinephrine
[3]; same bath
  effect on force of contraction in auricle in concentrations relaxing the trachea: increased the force of contraction in the auricle in concentrations where it relaxed the trachea
Heart rate
  effect on heart rate at equal bronchospasmolytically effective doses: more pronounced effect on the heart rate than did KWD2025
[4]
  bronchospasmolytic effect x epinephrine: 8.6 ± 1.7 times
